Reference: publication PMC5581131, “The novel sphingosine-1-phosphate receptors antagonist AD2900 affects lymphocyte activation and inhibits T-cell entry into the lymph nodes” (Oncotarget, 2017)
pEC50, pIC50: −log10 of the molar value.

How the values were obtained:
Type in all cases: cell-based
S1P5 = molecular target: T1, S1P5 (Homo sapiens, UniProt Q9H228); experiment: S1P5 antagonist test, Tango S1P5-bla U-2 OS cells; details: S1P5 TANGO U-2 OS cell line
T1 construct: Tango fusion partner (protease site + GAL4-VP16 transcription factor); expressed in transfected cells; host or cells: Tango S1P5-bla U-2 OS cells
Experimental: (§1) Since AD2900 is a sphingolipid analogue with properties that resemble those of S1P, we intended to examine its ability to interact with the S1P receptors. To delineate whether AD2900 can function as an agonistic or antagonistic compound to any of the S1P receptors, we used a high-throughput screening cell-based assay, employing cell lines stably transfected with human S1P receptors 1, 2, 3, 4, or 5 [37]. In this experiment, a compound with an IC50 or EC50 value ≤10 μM for a certain S1P receptor is considered active as an antagonist or an agonist, respectively. The results illustrate that AD2900 acts as an antagonist to all S1P receptors (Table 1, Supplementary Figure 3). […] No agonist activation was evident.
(§2) The S1P1 agonist test and S1P2, S1P3, S1P4, and S1P5 agonist and antagonist tests were conducted as previously described using S1P1 CRE-bla CHO cells, S1P2 CRE-bla CHO cells, S1P3 NFAT-bla CHO cells, Tango™ S1P4 (EDG6)-bla U-2 OS cells, and Tango™ S1P5 ([…])-bla U-2 OS cells. The S1P1 antagonist assay was carried out according to the manufacturer’s instructions using a Tango™ S1P1 (EDG1)-bla U-2 OS Cell-Based Assay (Invitrogen, NY, USA).

human PBMCs = experiment: Human allogeneic mixed lymphocyte reaction (MLR), [3H] thymidine incorporation, 1-day pretreatment
Experimental: To select an analogue with potential anti-inflammatory activity, the effects of six of our unique synthetic sphingolipid analogues (all chemical structures can be found in Supplementary Figure 1A) on human immune cell activation were examined. Human PBMCs were cultured with the compounds for 1 day at different concentrations. The cells were then activated by PBMCs from a different donor in a mixed lymphocyte reaction (MLR) experiment. […] The amine derivative, AD2900, is substituted with amino diols. Structurally, AD2900 has a hydroxymethyl group on carbon 2 and no phenyl substitution. These characteristics cause AD2900 to be more hydrophilic than other analogues. In addition, previous studies have shown that AD2900 has a higher lethal dose 50% (LD50), which is above 100 mg/kg, and it is stable at room temperature for at least 2 years (unpublished data). Based on these characteristics, AD2900 was selected for further investigation. […]
Human PBLs were collected from human whole blood collected from healthy donors. […] For the thymidine incorporation assay, after 4 days of co-culture, cells were pulsed with ^3H-thymidine at 1 μCi (0.037MBq) per well (PerkinElmer, MA, USA) for 16 additional hours and then harvested onto glass-fiber filters. ^3H-thymidine incorporation was measured using Top Count. […]

S1P3 = molecular target: T2, S1P3 (Homo sapiens, UniProt Q99500); experiment: S1P3 agonist test, S1P3 NFAT-bla CHO cells; details: S1P3 NFAT-BLA CHO cell line
T2 construct: expressed in transfected cells; host or cells: S1P3 NFAT-bla CHO cells
Experimental: as §1, §2

S1P4 = molecular target: T3, S1P4 (Homo sapiens, UniProt O95977); experiment: S1P4 agonist test, Tango S1P4 (EDG6)-bla U-2 OS cells; details: S1P4 TANGO U-2 OS cell line
T3 construct: Tango fusion partner (protease site + GAL4-VP16 transcription factor); expressed in transfected cells; host or cells: Tango S1P4 (EDG6)-bla U-2 OS cells
T3 sequence (O95977 1-384): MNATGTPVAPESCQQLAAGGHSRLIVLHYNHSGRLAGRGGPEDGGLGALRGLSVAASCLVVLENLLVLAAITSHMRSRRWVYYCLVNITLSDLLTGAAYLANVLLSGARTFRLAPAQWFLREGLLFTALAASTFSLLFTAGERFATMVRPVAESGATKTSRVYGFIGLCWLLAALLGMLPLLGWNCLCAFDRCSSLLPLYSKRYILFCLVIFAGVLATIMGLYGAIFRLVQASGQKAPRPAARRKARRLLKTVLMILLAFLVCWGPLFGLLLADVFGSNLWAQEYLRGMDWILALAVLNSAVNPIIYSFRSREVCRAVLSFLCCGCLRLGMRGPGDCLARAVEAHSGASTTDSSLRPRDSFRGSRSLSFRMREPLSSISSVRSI
Experimental: as §1, §2

T2 sequence (Q99500 whole entry): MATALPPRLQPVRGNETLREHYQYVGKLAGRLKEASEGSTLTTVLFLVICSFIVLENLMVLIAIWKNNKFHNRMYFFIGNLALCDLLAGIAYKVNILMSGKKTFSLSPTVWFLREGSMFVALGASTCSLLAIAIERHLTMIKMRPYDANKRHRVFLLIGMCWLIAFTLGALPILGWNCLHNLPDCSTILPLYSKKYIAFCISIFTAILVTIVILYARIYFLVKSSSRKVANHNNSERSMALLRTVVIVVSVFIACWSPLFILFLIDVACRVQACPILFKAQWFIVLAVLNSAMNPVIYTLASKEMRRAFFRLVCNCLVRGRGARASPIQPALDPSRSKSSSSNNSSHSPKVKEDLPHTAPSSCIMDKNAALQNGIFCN
T1 sequence (Q9H228 whole entry, the tested form may be a part): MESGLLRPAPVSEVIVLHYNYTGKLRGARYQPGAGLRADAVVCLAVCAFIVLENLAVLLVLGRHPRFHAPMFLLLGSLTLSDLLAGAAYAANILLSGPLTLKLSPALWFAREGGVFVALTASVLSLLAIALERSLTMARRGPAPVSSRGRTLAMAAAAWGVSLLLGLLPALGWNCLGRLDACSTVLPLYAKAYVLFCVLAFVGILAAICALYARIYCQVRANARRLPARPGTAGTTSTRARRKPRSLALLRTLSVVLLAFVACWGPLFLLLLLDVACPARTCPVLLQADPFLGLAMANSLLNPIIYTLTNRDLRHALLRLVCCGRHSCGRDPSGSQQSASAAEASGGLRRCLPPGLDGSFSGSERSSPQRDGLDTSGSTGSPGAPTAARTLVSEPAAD

CCCCCCCCCCCCCCCCNC(CO)(CO)CO [AD2900]
pIC50 (S1P5): 6.39
inhibitory effect on lymphocyte activation compared to FTY720 and SEW2817 (human PBMCs; 1-day pretreatment prior to MLR, concentrations of 6–20 μM): compromised effect in comparison to FTY720 but a higher inhibitory effect than that with SEW2817
inhibition of PBMC proliferation (human PBMCs; 1-day pretreatment, MLR, mean of up to, at the highest concentration): 76% ± 4%
pEC50 (S1P3): < 4.30
pEC50 (S1P4): < 4.30
